Source: PubChem BioAssay AID588617 (The Scripps Research Institute Molecular Screening Center, 2011)

Molecular target: Krueppel-like factor 5 (Homo sapiens) (UniProt Q13887)
Assay: KLF5 protein abundance by immunoblot – western blot, chemiluminescence, DLD-1 cells, counter-screen for KLF5 inhibitor project, late-stage follow-up (AID 588617)
Conditions: 24 h, at 10 µM, hits give high values

Krueppel-like factor 5 (Homo sapiens), sequence (Q13887 whole entry, looked up): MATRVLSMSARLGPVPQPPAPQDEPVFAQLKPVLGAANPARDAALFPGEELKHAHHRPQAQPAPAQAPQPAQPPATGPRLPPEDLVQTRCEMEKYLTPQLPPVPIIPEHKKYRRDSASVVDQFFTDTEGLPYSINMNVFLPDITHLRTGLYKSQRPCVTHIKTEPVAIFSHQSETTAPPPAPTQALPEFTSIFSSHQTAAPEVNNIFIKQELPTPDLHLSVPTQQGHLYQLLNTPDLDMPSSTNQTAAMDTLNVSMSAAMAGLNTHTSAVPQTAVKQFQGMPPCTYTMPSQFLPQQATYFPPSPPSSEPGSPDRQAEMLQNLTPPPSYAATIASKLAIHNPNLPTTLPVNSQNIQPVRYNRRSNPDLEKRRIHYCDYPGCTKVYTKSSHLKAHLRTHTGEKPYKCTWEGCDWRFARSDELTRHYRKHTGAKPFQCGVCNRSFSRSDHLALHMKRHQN

inhibition: 30.1%
SMILES: CN(C(=O)COC(=O)/C=C/c1cccc([N+](=O)[O-])c1)C1CCS(=O)(=O)C1 (stereo unspecified)
